What all share (assay type): cell-based
Assay [1] concerns Aspergillus fumigatus MYA3626 spores. Description: Broth microdilution MIC assay. Conditions: MYA3626SPORES. The protocol: (§1) Broth Microdilution Minimal Inhibitory Concentration (MIC) assays were performed to obtain the MIC values for Itraconazole and Ketoconazole with an antibiotic (Vancomycin or Tobramycin or Amikacin) against the two fungal strains.
(§2) Fungal strains: Aspergillus fumigatus MYA3626 and Candida albicans ATCC 90028 strains were obtained from the American Type Culture Collection (Manassas, Va.). The strains were maintained as a frozen glycerol stocks at −80° C. The fungal strains were prepared by thawing a glycerol stock, streaking and growing onto Sabouraud's Dextrose Agar (SDA) plates, overnight at 35±2° C. in aerobic conditions and used for the assay.
(§3) Antifungal agents: Itraconazole (Cat #16657, Lot #087K1322), Ketoconazole (Cat # K1003, Lot # SLBR1290V). Stocks were prepared in appropriate solvents following the CLSI guidelines. See, for example, Reference method for broth dilution antifungal susceptibility testing of filamentous fungi, approved standard, 2nd ed. CLSI document M38-A2, vol. 28. CLSI, Wayne, Pa. (2008).
(§4) The completely synthetic medium RPMI-1640 (with glutamine, without bicarbonate, and with phenol red as a pH indicator) was buffered with 0.165 mol/L MOPS (3-[N-morpholino] propanesulfonic acid) buffer was used as the growth medium for the fungal strains. Overnight cultures of the fungal strains were grown on Difco™ Sabouraud's Dextrose Agar (SDA) plates at 35° C. To induce conidium and sporangiospore formation, the culture plates were transferred to incubator and grown for 5-7 days 30° C. or until good sporulation was obtained. Approximately, 10 mL of 0.85% saline containing 0.01% of Tween 80 was used to poured on to the agar plate containing conidia or sporangiospores and hyphal fragments. The suspension containing conidia or sporangiospores and hyphal fragments was aspirated and transferred to a sterile tube. This mixture was filtered to separate the spores from the vegetative cells of the fungi. The supernatant containing only fungal spores was used for all the assays. Fungal spore inoculum was prepared in RPMI-1640 (with glutamine, without bicarbonate, and with phenol red as a pH indicator) was buffered with 0.165 mol/L MOPS (3-[N-morpholino] propanesulfonic acid) buffer to a final density of 10^6 CFU/mL using a hemocytometer.
(§5) Each MIC assay included 11 2-fold serial dilutions of the antifungal agents. Test concentrations for the test articles were tested at the following concentrations: 64 μg/mL, 32 μg/mL, 16 μg/mL, 8 μg/mL, 4 μg/mL, 2 μg/mL, 1 μg/mL, 0.5 μg/mL, 0.25 μg/mL, 0.125 μg/mL, and 0.0625 μg/mL. Broth microdilution assays were performed according to the procedures detailed in CLSI document M38-A2 (CLSI, 2008). Briefly, 2× stock solutions of test articles were prepared at 128 μg/mL. A two-fold serial dilution of the stock solution were performed. Diluted stock solutions of the fungal spores were adjusted (to be equivalent to 10^6 CFU/mL). 1× final concentration of the antifungals was obtained when they were combined with the fungal spore broth in the microtiter plate. Plates were incubated for 3-5 days at 35±2° C. in an ambient air incubator. MIC values recorded are the minimum concentration of the test articles that inhibits growth as observed by unaided eye. The MIC values was expressed in μg/mL. The assay was carried out in duplicates.
On the technique in general: Broth dilution looks for growth in wells or tubes with falling amounts of substance.

The test system of assay [2] is Candida albicans ATCC 90028 spores. Description: Broth microdilution MIC assay. Conditions: Candida albicans alone. The protocol:
as §1, §2, §3, §4, §5

In assay [3] the test system is co-culture of Aspergillus fumigatus + Candida albicans spores (1:1). As to the kind of experiment: Broth microdilution MIC assay, co-culture. The protocol:
as §1, §2, §3, §4, §5

The subject of assay [4] is Aspergillus fumigatus MYA3626 spores. Description: Checkerboard synergy assay. To be noted: MYA3626SPORES, FIG. 5 synergy data, agent alone. The protocol: (§6) This study evaluated the synergistic activity of 2 antifungal agents (Itraconazole and Ketoconazole) with an antibiotic (Vancomycin or Tobramycin or Amikacin) against the spores of 2 fungi; Aspergillus fumigatus MYA3626 and Candida albicans ATCC 90028; individually as well as in co-cultivation (Aspergillus fumigatus+Candida albicans). Synergy testing was carried out as per checkerboard assay by Victor Lorian methodology. See, for example, Lorian, V. Antibiotics in Laboratory Medicine. Edition 5: (2005).
(§7) In vitro activity of the test articles were tested in combination by the Checkerboard assay. See, for example, Lorian, V. Antibiotics in Laboratory Medicine. Edition 5: (2005). The assay was carried out in duplicates. The starting concentrations for the test articles was determined as per the MIC data. Two-fold serial dilutions of 8×MIC for the antifungal agents; Itraconazole and Ketoconazole was performed separately. When Itraconazole and Ketoconazole were combined in a microtiter plate, the concentration of both agents was 2×MIC. 1× final concentration of the antifungal agents were obtained when they were combined with the 10^6 CFU/mL fungal spore inoculum in the microtiter plate. The plates were incubated at 35° C. for 3-5 days. The assay plates were visually inspected to confirm the MIC endpoint and used to calculate the Fractional Inhibitory Concentration (FIC) Index to determine any synergistic interaction.
(§8) The FIC Index was calculated as follows:
(§9) FIC Index=FICA+FICB • where, A and B are the MIC of the test article and an antifungal in combination (in a single well). MICA and MICB are the MICs of each antifungal individually.
(§10) FIC Index value was used to categorize the interaction, as follows:
(§11) To determine if Itraconazole and Ketoconazole combination had synergistic antifungal activity, a synergy assay was carried out with Itraconazole (1 μg/mL, 0.5 μg/mL, 0.25 μg/mL, 0.125 μg/mL, 0.0625 μg/mL, 0.0312 μg/mL, and 0.0156 μg/mL) and Ketoconazole (8 μg/mL, 4 μg/mL, 2 μg/mL, 1 μg/mL, 0.5 μg/mL, 0.25 μg/mL, 0.125 μg/mL, 0.0625 μg/mL, 0.0312 μg/mL, 0.0156 μg/mL and 0.0078 μg/mL) against Aspergillus fumigatus alone, Candida albicans alone, and against Aspergillus fumigatus+Candida albicans co-culture.

For assay [5], the system named is Candida albicans ATCC 90028 spores. Description: Checkerboard synergy assay. To be noted: ATCC90028, FIG. 6 synergy data, agent alone. The procedure: as §6, §7, §8, §9, §10, §11
Assay [6] deals with co-culture of Aspergillus fumigatus + Candida albicans spores (1:1). Description: Checkerboard synergy assay, co-culture. Conditions: FIG. 7 synergy data, agent alone. The procedure:
as §6
as §7, with “The assay plates were visually inspected to confirm the MIC endpoint and used to calculate the Fractional Inhibitory Concentration (FIC) Index to determine any synergistic interaction.” left out
The FIC Index was calculated as follows: […]

Assay [7] deals with Candida albicans. As to the kind of experiment: Culture and sensitivity, Patient 7. Conditions: culture from Patient 7. The text has this:
(§12) The patient underwent the standard workup for CRS, sleep disorder, and nasal obstruction, plus our diagnostic skin test and sinus CT scan.

The test system of assay [8] is S. aureus, a gram negative bacteria. Description: Culture and sensitivity, Patient 7. To be noted: culture from Patient 7.
From the text: as §12

[9] abbreviates: Table 3, Aspergillus fumigatus alone, 10^6 CFU/mL spores, 3-5 days at 35° C.
[10] abbreviates: Table 4, repeated MIC study, Aspergillus fumigatus alone.
Where [11] appears, read: ATCC90028, Table 3, 10^6 CFU/mL spores, 3-5 days at 35° C., read-out: MIC.
Setting [12] is: Aspergillus fumigatus, Table 3, read-out: MIC.
Setting [13] is: Aspergillus fumigatus, Table 4, repeated MIC study, agent alone, read-out: MIC.

Converted amounts (≈) assume the structure as drawn.

Usually MIC stands for the smallest concentration in the dilution series that meets the test's criterion for growth inhibition.

With `CCC(C)n1ncn(-c2ccc(N3CCN(c4ccc(OCC5COC(Cn6cncn6)(c6ccc(Cl)cc6Cl)O5)cc4)CC3)cc2)c1=O` (stereo not drawn) [Itraconazole], the MIC was found to be 0.5 µg/mL (≈ 0.709 µM) in assay [1] (setting [9]); 1 µg/mL (≈ 1.42 µM) in assay [1] (setting [10]); 0.06 µg/mL (≈ 0.085 µM) in assay [2] (setting [11]); 0.06 µg/mL (≈ 0.085 µM) in assay [2] (Table 4, repeated MIC study); 0.5 µg/mL (≈ 0.709 µM) in assay [3] (setting [12]); 1 µg/mL (≈ 1.42 µM) in assay [3] (setting [13]). For the same compound, the MIC in assay [3] (Table 4, repeated MIC study, agent alone, listed as Itraconazone) was 1 µg/mL (≈ 1.42 µM); in assay [4], greater than 0.5 µg/mL; in assay [5], greater than 0.0312 µg/mL; in assay [6], greater than 0.5 µg/mL.
Regarding `CC(=O)N1CCN(c2ccc(OCC3COC(Cn4ccnc4)(c4ccc(Cl)cc4Cl)O3)cc2)CC1` (stereo not drawn) [Ketoconazole], the minimal inhibitory concentration (MIC) is 16 µg/mL (≈ 30.1 µM) in assay [1] (setting [9]); 8 µg/mL (≈ 15.1 µM) in assay [1] (setting [10]); 0.06 µg/mL (≈ 0.113 µM) in assay [2] (setting [11]); 0.06 µg/mL (≈ 0.113 µM) in assay [2] (Table 4, repeated MIC study); 16 µg/mL (≈ 30.1 µM) in assay [3] (setting [12]); 8 µg/mL (≈ 15.1 µM) in assay [3] (setting [13]). Also, the minimal inhibitory concentration (MIC) is greater than 4 µg/mL in assay [4], greater than 0.0312 µg/mL in assay [5] and greater than 4 µg/mL in assay [6]. Further, the “Sensitivity of cultured Candida albicans” value in assay [7] is on record as “sensitive”.
Consider `NC[C@H]1O[C@H](O[C@H]2[C@H](O)[C@@H](O[C@H]3O[C@H](CO)[C@@H](O)[C@H](N)[C@H]3O)[C@H](N)C[C@@H]2N)[C@H](N)C[C@@H]1O` [tobramycin], for which, in assay [8], the “Sensitivity of cultured bacteria” value was “sensitive”.

Source of the values: patent US20180050033A1, “ANTIFUNGAL TREATMENT OF RHEUMATOID ARTHRITIS” (Gerbe Labs Inc., priority 2016, published 2018).
